Key:
Experiment in all cases: relative viability (nuclei count vs DMSO), 5 days (fraction); higher = more cells survive
Linsitinib + Bortezomib = compound: C[C@]1(O)C[C@@H](c2nc(-c3ccc4ccc(-c5ccccc5)nc4c3)c3c(N)nccn32)C1 [Linsitinib] + CC(C)C[C@H](NC(=O)[C@H](Cc1ccccc1)NC(=O)c1cnccn1)B(O)O [Bortezomib] (partner 0.002 µM)
Outline: (§1)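 Lung cancer cell lines in 1536-well plates got either a single drug or a fixed anchor-drug dose together with five library-drug doses (not always all listed) in √10 steps, by pin tool, on the day after seeding. Nuclei were counted after 5 days, and relative viability is the treated-to-vehicle ratio of nuclei counts. Values are medians of duplicate plates.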

Linsitinib + Crizotinib = compound: C[C@]1(O)C[C@@H](c2nc(-c3ccc4ccc(-c5ccccc5)nc4c3)c3c(N)nccn32)C1 [Linsitinib] + C[C@@H](Oc1cc(-c2cnn(C3CCNCC3)c2)cnc1N)c1c(Cl)ccc(F)c1Cl [Crizotinib] (partner 1 µM)
Outline: as §1

Linsitinib + Tozasertib = compound: C[C@]1(O)C[C@@H](c2nc(-c3ccc4ccc(-c5ccccc5)nc4c3)c3c(N)nccn32)C1 [Linsitinib] + Cc1cc(Nc2cc(N3CCN(C)CC3)nc(Sc3ccc(NC(=O)C4CC4)cc3)n2)n[nH]1 [Tozasertib] (partner 0.1 µM)
Outline: as §1

Ispinesib + Navitoclax = compound: Cc1ccc(C(=O)N(CCCN)[C@@H](c2nc3cc(Cl)ccc3c(=O)n2Cc2ccccc2)C(C)C)cc1 [Ispinesib] + CC1(C)CCC(c2ccc(Cl)cc2)=C(CN2CCN(c3ccc(C(=O)NS(=O)(=O)c4ccc(N[C@H](CCN5CCOCC5)CSc5ccccc5)c(S(=O)(=O)C(F)(F)F)c4)cc3)CC2)C1 [Navitoclax] (partner 0.5 µM)
Outline: as §1

## UMC-11
Linsitinib + Bortezomib; first compound 0.01 µM
  relative viability: 0.693
Linsitinib + Bortezomib; first compound 0.03162 µM
  relative viability: 0.621
Linsitinib + Bortezomib; first compound 0.1 µM
  relative viability: 0.829
Linsitinib + Bortezomib; first compound 1 µM
  relative viability: 0.752
Linsitinib + Crizotinib; first compound 0.01 µM
  relative viability: 0.698
Linsitinib + Crizotinib; first compound 0.03162 µM
  relative viability: 0.448
Linsitinib + Crizotinib; first compound 0.1 µM
  relative viability: 0.642
Linsitinib + Crizotinib; first compound 1 µM
  relative viability: 0.549
Linsitinib + Tozasertib; first compound 0.01 µM
  relative viability: 0.204
Linsitinib + Tozasertib; first compound 0.1 µM
  relative viability: 0.196
Linsitinib + Tozasertib; first compound 1 µM
  relative viability: 0.19
Ispinesib + Navitoclax; first compound 0.001 µM
  relative viability: 0.314
Ispinesib + Navitoclax; first compound 0.003162 µM
  relative viability: 0.371
Ispinesib + Navitoclax; first compound 0.01 µM
  relative viability: 0.267
Ispinesib + Navitoclax; first compound 0.03162 µM
  relative viability: 0.176
Ispinesib + Navitoclax; first compound 0.1 µM
  relative viability: 0.216

Reference: the supplement of paper PMC10307832
